Results reported in ChEMBL document CHEMBL4507281, “Data for DCP probe BI-4394” (2021).

Assays:
Conditions in all cases: Compound concentration 10.0 uM
[1] = molecular target: 5-hydroxytryptamine receptor 1A (Homo sapiens) (UniProt P08908)
[2] = molecular target: Muscarinic acetylcholine receptor M2 (Homo sapiens) (UniProt P08172)
[3] = molecular target: T1, Serine/threonine-protein kinase Nek1 (Homo sapiens) (UniProt Q96PY6)
T1 sequence (whole entry): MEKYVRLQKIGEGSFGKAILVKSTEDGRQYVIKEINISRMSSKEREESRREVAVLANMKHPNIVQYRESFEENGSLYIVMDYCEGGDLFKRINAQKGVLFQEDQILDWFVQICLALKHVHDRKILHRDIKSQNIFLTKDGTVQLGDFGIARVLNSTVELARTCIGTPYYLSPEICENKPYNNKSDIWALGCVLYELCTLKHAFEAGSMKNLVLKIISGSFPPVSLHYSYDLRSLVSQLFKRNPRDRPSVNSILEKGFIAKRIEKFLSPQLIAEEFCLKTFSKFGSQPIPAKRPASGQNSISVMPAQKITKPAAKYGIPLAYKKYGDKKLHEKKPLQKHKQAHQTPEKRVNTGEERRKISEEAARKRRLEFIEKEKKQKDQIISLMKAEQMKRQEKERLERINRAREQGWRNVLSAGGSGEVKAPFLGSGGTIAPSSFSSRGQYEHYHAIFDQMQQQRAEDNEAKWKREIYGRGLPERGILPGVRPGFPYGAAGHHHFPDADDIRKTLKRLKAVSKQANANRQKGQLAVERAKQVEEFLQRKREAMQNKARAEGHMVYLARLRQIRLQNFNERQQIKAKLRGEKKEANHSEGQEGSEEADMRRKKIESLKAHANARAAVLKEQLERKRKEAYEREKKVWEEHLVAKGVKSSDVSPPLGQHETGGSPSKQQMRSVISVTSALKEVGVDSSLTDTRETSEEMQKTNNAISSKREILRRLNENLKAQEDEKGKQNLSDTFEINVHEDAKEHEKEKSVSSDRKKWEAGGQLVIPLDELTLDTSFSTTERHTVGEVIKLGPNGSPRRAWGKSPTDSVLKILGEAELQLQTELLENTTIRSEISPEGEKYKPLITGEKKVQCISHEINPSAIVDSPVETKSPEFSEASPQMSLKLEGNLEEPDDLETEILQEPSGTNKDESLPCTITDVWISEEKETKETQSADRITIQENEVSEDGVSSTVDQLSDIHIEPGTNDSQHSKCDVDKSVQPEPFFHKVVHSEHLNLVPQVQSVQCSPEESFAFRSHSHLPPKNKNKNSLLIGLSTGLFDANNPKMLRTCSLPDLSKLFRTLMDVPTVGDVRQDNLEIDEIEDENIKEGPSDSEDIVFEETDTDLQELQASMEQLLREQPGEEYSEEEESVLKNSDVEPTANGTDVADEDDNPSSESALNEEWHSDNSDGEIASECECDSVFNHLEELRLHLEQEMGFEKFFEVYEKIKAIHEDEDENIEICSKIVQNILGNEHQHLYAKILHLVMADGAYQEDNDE

[4] = molecular target: Receptor-type tyrosine-protein kinase FLT3 (Homo sapiens) (UniProt P36888)
[5] = molecular target: Proto-oncogene tyrosine-protein kinase receptor Ret (Homo sapiens) (UniProt P07949)
Chain of Proto-oncogene tyrosine-protein kinase receptor Ret (Homo sapiens) (P07949 whole entry): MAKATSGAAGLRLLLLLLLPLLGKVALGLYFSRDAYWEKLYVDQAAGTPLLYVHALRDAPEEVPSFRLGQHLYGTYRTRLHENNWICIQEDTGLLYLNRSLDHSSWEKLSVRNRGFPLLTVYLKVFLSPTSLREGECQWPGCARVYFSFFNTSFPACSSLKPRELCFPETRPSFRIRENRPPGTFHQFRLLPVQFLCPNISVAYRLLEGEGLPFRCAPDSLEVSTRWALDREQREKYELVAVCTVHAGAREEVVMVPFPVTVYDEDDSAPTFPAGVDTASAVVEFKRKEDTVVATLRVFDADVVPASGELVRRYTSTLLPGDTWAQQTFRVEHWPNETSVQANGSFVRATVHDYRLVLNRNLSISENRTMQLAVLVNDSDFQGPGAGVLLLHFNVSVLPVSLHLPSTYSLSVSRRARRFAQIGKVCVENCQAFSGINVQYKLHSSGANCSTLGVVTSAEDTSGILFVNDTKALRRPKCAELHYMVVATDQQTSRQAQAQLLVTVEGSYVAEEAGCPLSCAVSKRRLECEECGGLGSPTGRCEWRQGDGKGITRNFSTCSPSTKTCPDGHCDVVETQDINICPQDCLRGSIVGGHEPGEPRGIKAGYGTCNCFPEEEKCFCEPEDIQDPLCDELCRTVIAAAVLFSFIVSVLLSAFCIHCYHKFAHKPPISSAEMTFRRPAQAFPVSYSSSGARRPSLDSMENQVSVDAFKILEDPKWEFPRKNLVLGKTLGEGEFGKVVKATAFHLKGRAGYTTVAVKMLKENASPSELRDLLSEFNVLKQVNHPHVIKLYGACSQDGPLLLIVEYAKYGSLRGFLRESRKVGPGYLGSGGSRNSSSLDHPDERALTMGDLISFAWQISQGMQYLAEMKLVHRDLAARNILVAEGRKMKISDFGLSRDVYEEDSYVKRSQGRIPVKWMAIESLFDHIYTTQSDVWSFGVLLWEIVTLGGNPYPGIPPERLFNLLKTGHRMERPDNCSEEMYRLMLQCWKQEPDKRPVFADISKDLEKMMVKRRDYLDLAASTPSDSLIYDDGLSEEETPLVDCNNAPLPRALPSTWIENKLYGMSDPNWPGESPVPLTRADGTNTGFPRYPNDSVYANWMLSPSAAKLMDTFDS

[6] = molecular target: Dual specificity tyrosine-phosphorylation-regulated kinase 3 (Homo sapiens) (UniProt O43781)
Chain of Dual specificity tyrosine-phosphorylation-regulated kinase 3 (Homo sapiens) (O43781 whole entry): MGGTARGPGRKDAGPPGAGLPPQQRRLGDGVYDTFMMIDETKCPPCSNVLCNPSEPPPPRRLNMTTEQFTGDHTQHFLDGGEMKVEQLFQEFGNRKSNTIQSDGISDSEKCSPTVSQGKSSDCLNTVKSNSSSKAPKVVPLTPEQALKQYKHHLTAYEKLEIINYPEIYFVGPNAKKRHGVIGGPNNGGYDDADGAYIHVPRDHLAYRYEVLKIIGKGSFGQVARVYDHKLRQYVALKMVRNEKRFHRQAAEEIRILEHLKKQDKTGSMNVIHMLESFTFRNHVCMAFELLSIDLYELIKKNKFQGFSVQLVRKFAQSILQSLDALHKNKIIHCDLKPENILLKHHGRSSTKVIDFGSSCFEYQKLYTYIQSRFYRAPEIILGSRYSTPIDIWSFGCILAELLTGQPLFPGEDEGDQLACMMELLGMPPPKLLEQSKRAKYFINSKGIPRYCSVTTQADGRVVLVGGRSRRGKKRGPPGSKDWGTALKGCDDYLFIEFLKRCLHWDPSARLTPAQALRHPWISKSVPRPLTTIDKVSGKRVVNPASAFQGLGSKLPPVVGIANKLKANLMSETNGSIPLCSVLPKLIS

[7] = molecular target: Serine/threonine-protein kinase mTOR (Homo sapiens) (UniProt P42345)
[8] = molecular target: Insulin-like growth factor 1 receptor (Homo sapiens) (UniProt P08069)
Chain of Insulin-like growth factor 1 receptor (Homo sapiens) (P08069 31-736 limits assumed): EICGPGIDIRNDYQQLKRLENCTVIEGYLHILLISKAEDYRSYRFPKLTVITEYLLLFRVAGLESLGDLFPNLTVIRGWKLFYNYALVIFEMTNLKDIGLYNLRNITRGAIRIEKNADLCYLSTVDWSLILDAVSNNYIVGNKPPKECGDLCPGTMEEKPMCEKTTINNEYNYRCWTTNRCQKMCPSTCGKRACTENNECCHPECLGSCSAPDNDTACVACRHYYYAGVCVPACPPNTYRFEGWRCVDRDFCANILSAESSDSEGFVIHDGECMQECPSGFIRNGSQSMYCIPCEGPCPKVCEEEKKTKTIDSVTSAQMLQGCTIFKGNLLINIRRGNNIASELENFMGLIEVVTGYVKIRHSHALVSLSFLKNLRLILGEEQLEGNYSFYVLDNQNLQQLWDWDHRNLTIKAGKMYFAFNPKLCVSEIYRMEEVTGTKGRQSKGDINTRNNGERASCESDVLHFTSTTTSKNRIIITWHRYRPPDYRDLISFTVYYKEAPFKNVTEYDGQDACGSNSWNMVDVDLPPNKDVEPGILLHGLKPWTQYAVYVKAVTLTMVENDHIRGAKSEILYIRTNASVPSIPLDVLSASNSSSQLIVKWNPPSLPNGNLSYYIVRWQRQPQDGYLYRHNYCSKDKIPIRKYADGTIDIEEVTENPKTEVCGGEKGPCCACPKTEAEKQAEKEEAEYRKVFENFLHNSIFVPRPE
Chain of Insulin-like growth factor 1 receptor (Homo sapiens) (P08069 741-1367 limits assumed): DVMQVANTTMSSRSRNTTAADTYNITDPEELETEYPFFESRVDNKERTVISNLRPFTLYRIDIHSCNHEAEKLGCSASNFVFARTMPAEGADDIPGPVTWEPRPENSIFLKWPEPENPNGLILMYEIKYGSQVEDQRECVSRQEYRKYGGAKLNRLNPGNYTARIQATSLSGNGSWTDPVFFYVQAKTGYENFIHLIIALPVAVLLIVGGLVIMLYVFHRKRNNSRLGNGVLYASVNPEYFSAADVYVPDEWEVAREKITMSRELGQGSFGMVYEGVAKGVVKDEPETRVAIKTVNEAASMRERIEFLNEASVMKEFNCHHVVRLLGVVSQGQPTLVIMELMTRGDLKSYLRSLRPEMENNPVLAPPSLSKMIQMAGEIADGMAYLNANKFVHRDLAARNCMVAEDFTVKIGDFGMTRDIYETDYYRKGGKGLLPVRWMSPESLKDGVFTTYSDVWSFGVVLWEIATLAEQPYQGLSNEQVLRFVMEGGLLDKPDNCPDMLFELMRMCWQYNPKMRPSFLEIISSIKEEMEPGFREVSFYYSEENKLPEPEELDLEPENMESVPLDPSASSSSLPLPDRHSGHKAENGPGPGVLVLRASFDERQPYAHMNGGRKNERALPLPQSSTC

[9] = molecular target: Rho-associated protein kinase 2 (Homo sapiens) (UniProt O75116)
[10] = molecular target: Vascular endothelial growth factor receptor 2 (Homo sapiens) (UniProt P35968)
[11] = molecular target: T2, Activin receptor type-1B (Homo sapiens) (UniProt P36896)
T2 sequence (whole entry): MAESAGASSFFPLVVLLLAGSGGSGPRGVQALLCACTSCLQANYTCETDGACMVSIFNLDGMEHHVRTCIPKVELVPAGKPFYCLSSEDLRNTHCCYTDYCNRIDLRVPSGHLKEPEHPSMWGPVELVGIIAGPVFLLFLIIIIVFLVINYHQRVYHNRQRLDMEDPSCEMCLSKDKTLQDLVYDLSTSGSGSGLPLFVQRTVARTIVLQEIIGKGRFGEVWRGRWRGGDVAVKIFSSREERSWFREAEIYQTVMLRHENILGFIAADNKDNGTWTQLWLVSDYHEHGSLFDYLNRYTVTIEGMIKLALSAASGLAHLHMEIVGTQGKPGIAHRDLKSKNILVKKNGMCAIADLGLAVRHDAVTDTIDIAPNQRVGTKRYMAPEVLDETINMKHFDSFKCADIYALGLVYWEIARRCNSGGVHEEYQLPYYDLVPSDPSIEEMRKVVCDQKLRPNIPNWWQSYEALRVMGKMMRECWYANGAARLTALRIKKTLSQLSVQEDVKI

[12] = molecular target: Casein kinase II subunit alpha (Homo sapiens) (UniProt P68400)
[13] = molecular target: Glycogen synthase kinase-3 beta (Homo sapiens) (UniProt P49841)
Chain of Glycogen synthase kinase-3 beta (Homo sapiens) (P49841 whole entry, looked up): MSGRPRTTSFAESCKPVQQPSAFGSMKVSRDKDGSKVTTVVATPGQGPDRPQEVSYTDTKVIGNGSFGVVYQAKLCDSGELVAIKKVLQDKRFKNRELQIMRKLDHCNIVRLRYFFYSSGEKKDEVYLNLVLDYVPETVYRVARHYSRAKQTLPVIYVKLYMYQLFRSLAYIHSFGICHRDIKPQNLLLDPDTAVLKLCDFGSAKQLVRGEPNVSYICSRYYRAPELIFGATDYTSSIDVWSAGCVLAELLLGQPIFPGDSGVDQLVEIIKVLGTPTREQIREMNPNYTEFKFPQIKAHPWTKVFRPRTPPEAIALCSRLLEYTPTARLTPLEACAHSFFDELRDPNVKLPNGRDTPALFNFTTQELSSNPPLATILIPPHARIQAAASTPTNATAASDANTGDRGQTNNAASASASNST

[14] = molecular target: Platelet-derived growth factor receptor beta (Homo sapiens) (UniProt P09619)
[15] = molecular target: Protein kinase C beta type (Homo sapiens) (UniProt P05771)
Chain of Protein kinase C beta type (Homo sapiens) (P05771 2-671 limits assumed): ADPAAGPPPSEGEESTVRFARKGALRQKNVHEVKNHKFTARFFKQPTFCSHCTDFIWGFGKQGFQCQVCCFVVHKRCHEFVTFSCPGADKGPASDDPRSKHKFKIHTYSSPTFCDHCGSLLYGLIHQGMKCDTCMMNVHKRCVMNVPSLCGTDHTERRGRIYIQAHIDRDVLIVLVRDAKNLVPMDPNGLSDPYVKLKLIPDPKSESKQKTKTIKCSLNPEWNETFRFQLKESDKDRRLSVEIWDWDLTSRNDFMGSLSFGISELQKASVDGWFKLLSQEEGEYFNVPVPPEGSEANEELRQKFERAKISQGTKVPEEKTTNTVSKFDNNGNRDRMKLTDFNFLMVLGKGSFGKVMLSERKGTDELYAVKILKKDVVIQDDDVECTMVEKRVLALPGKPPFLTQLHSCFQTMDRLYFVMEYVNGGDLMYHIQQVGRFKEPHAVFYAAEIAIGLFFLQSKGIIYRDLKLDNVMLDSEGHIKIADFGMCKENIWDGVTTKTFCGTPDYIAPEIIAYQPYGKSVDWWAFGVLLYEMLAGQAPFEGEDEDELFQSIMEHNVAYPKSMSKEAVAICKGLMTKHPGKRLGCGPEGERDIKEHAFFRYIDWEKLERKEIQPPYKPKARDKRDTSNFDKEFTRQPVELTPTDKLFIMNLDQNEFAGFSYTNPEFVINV

[16] = molecular target: Receptor tyrosine-protein kinase erbB-2 (Homo sapiens) (UniProt P04626)

Chain of Muscarinic acetylcholine receptor M2 (Homo sapiens) (P08172 whole entry): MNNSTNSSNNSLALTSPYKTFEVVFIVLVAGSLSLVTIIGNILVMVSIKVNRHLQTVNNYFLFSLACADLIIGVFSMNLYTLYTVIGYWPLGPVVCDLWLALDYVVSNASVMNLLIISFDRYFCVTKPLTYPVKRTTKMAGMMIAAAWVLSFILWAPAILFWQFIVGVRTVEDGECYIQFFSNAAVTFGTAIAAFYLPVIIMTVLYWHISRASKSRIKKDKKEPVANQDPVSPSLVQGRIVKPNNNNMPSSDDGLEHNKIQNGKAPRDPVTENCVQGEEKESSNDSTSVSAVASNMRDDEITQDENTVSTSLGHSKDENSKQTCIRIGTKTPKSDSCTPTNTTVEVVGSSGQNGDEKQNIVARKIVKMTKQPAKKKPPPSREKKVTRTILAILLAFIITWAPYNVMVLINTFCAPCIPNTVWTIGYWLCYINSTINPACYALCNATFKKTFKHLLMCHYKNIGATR
Chain of 5-hydroxytryptamine receptor 1A (Homo sapiens) (P08908 whole entry): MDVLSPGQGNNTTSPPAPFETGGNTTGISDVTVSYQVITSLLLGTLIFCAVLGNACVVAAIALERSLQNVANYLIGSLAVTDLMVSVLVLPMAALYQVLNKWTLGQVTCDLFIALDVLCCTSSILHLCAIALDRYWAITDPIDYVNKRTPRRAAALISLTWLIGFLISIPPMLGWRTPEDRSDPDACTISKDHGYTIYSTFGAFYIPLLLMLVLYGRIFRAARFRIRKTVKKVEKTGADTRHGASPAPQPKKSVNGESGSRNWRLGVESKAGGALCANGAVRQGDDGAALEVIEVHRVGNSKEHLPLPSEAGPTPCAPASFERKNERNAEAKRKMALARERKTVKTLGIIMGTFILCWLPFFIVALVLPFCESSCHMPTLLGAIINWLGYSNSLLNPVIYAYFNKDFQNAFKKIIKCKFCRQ

SMILES | inhibition [1] [%] | inhibition [2] [%] | residual activity [3] [%] | residual activity [4] [%] | residual activity [5] [%] | residual activity [6] [%] | residual activity [7] [%] | residual activity [8] [%] | residual activity [9] [%] | residual activity [10] [%] | residual activity [11] [%] | residual activity [12] [%] | residual activity [13] [%] | residual activity [14] [%] | residual activity [15] [%] | residual activity [16] [%]
Cn1nc(C(=O)NCc2ccc(C(=O)O)cc2)cc1-c1ccc2[nH]ccc2c1 [BI 4395] | 22.7 | -8.35 | – | – | – | – | – | – | – | – | – | – | – | – | – | –
CCOC(=O)c1cc2cc(-c3cc(C(=O)NCc4ccc(C(=O)O)cc4)nn3C)ccc2[nH]1 [BI 4394] | – | – | 49 | 64 | 64 | 28 | 78 | 88 | 56 | 17 | 100 | 89 | 6 | 96 | 97 | 87
